According to patent publication US10604473B2, “Lipids that increase insulin sensitivity and methods of using the same” (Beth Israel Deaconess Medical Center, Inc., priority 2013, dated 2020):
“Also recorded” adds a separate entry of the source.

Columns and labels:
STC-1 cells [1] = test: GLP-1 secretion from STC-1 enteroendocrine cells (ELISA); assay type: cell-based
Procedure: For the experiments summarized in FIG. 41 STC-1 cells were incubated with vehicle (DMSO), 9-PAHSA, 5-PAHSA or 9-OAHSA at the indicated concentrations or lineolic acid (100 uM) as a positive control. Media was harvested and GLP-1 was measured by ELISA.
For the experiments summarized in FIG. 42, the same protocol as described for FIG. 41 was used, except in this experiment a time course was performed. For both FIG. 41 and FIG. 42, for GLP-1 secretion STC1 cells were washed 3× with serum free culture media followed by stimulation with FAHFAs or vehicle at the indicated concentrations and timepoints. Levels of active GLP-1 were measured by ELISA.

[2] = test system: insulin-resistant high-fat fed mice; test: Insulin tolerance test in HFD-fed mice; assay type: in vivo, mouse; details: for baseline glycemia: 2.5-3 hours after administration; for area above the insulin response curve / insulin sensitivity: ITT
Procedure: (§1) Area under the curve (AUC), *p<0.05 compared to vehicle. […] Area above the curve (AAC). *p<0.05 compared to vehicle. […] Area under the curve (AUC). *p<0.05 compared to vehicle. FIG. 53D is a bar graph showing serum insulin levels 5 min post glucose challenge in chow-fed mice gavaged with 5-PAHSA or vehicle (glucose values shown in FIG. 53C). n=12-14 per group, *p<0.05 compared to vehicle by t-test. FIG. 53E is a bar graph showing serum GLP-1 levels 5 min post glucose challenge from chow-fed mice gavaged with 5-PAHSA or vehicle (glucose levels in FIG. 53C). n=12-14 per group, *p<0.05 compared to vehicle by t-test. FIG. 53F are bar graphs showing insulin secretion from primary human islets from two independent donors. Islets were incubated with low (2.5 mM) or high (20 mM) glucose ex vivo in the presence of 5-PAHSA (20 μM) or vehicle control. n=100 islets per condition, *p<0.05 compared to control 2.5 mM glucose, ^#p<0.05 compared to respective treatments at 2.5 mM glucose, ^$p<0.05 compared to control or diluents at 20 mM glucose by t-test. FIG. 53G are bar graphs showing active GLP-1 secretion from STC-1 cells in response to 5-PAHSA (5-P), 9-PAHSA (9P), […] (LA), GW9508 (GW) or vehicle control (DMSO). n=4 per group, *p<0.05 compared to vehicle by t-test. All data are mean±s.e.m. See also FIG. 56.

aged chow-fed mice = test: Oral glucose tolerance test in aged chow-fed mice, with serum insulin and GLP-1; assay type: in vivo, mouse
Procedure: as §1
Studies were conducted to determine whether the PAHSA effects to improve glucose tolerance resulted entirely from the increased insulin sensitivity or also from improved insulin secretion. Therefore, the effects of PAHSAs on glucose-stimulated insulin secretion were tested in vivo in aged (47 weeks old) chow-fed mice. […] Thus, PAHSAs acutely improve insulin sensitivity and glucose tolerance and stimulate GLP-1 and insulin secretion.

STC-1 cells [3] = test: ERK phosphorylation in STC-1 cells (immunoblot); assay type: cell-based; details: 15 minutes stimulation
Procedure: For the experiments summarized in FIG. 40, STC-1 cells were incubated with 9-PAHSA, 5-PAHSA or 9-OAHSA at the indicated concentrations. Cells were harvested and lysed and proteins were separated by SDS PAGE and transferred onto nitrocellulose filters. The phosphorylation of ERK and the amount of total ERK was determined by immunoblotting with antibodies specific for total or phosphor-ERK. DMSO was the control. For ERK phosphorylation, cells were serum deprived overnight and stimulated with FAHFAs or vehicle as indicated for 15 minutes followed by lysis in RIPA buffer and analysis by SDS-PAGE

[4] = test system: insulin-resistant high-fat fed mice; test: Oral glucose tolerance test in HFD-fed mice; assay type: in vivo, mouse; details: for basal glycemia: 30 minutes after oral administration; for area under the glucose excursion curve / glucose tolerance: OGTT, gavage 30 min prior
Procedure: as §1

purified CEL = target: T1, purified CEL (Homo sapiens, UniProt P19835); test: FAHFA hydrolysis by purified CEL; assay type: biochemical; details: micellar concentrations of NaTC
T1 construct: purchased R&D Systems
T1 sequence (P19835 21-753): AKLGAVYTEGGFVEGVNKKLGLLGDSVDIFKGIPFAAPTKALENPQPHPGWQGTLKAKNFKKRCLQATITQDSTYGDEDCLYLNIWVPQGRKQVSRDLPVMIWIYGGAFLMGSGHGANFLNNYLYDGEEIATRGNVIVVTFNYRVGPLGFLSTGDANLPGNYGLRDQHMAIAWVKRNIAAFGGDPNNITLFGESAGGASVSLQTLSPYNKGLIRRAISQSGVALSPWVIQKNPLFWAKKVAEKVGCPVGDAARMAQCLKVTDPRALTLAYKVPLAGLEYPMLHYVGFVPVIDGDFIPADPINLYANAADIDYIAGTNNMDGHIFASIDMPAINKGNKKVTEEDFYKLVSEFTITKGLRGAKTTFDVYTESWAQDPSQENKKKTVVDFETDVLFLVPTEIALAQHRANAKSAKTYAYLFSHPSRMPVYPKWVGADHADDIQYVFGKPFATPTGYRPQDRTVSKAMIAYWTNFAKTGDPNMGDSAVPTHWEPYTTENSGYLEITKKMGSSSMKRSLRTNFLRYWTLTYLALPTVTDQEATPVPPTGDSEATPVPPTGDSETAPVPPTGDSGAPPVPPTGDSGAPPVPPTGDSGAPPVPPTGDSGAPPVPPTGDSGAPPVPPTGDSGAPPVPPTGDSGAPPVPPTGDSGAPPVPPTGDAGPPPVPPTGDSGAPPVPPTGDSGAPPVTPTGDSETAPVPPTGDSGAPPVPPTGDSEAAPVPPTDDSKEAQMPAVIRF
From the text: To confirm the identification of CEL as a FAHFA hydrolase, a small amount of purified enzyme (available commercially from R&D Systems) was used.

[5] = 5 minutes after glucose administration

Row | SMILES | GLP-1 secretion (STC-1 cells [1]) | baseline glycemia [2] | area above the insulin response curve [2] | insulin sensitivity [2] | GLP-1 levels (aged chow-fed mice; [5]) | insulin secretion (aged chow-fed mice; [5]) | glucose tolerance (aged chow-fed mice; OGTT, gavage 30 min prior) | ERK phosphorylation (STC-1 cells [3]) | basal glycemia [4] | area under the glucose excursion curve [4] | glucose tolerance [4] | time course for GLP-1 secretion (STC-1 cells [1]) | hydrolysis of 9-PAHSA (9-HSA production) (purified CEL)
1 | CCCCCCCCCCCCCCCC(=O)OC(CCCCCCCCCCCCC)CCCC(=O)O (stereo not drawn) [5-PAHSA] | rapidly stimulated GLP-1 secretion; also recorded: induce GLP-1 secretion | lowered baseline glycemia | more than a doubling | improved insulin sensitivity | increased | acute enhancement of insulin secretion | improved glucose tolerance | induce ERK phosphorylation | lowered basal glycemia | reduced area under the glucose excursion curve | improved glucose tolerance |  | 
2 | CCCCCCCCCCCCCCCC(=O)OC(CCCCCCCCC)CCCCCCCC(=O)O (stereo not drawn) [9-PAHSA, palmitoyl-9-hydroxystearic acid] | rapidly stimulated GLP-1 secretion; also recorded: induce GLP-1 secretion | lowered baseline glycemia | more than a doubling | improved insulin sensitivity |  |  |  | induce ERK phosphorylation | lowered basal glycemia | reduced area under the glucose excursion curve | improved glucose tolerance | very rapid and sustained | substantial hydrolysis
